From patent US20210267203A1, “PESTICIDALLY ACTIVE AZOLE-AMIDE COMPOUNDS” (SYNGENTA PARTICIPATIONS AG, priority 2018, published 2021)

Columns and labels:
Type in all cases: in vivo
[1] = system: Plutella xylostella (Diamond Back Moth); assay: Example B5: Plutella xylostella (diamond back moth), artificial diet, 24-well, eggs; settings: 192 h, application rate 200 ppm, 8 days after infestation, read-out: effect in at least one of the two categories (mortality or growth inhibition)
In short: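 Artificial diet in 24-well plates treated with aqueous dilutions of 10,000 ppm DMSO stocks, dried, then infested with Plutella eggs. Mortality and growth inhibition scored against untreated samples 8 days after infestation; activity rated at 200 ppm application rate.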

[2] = system: Myzus persicae (Green Peach Aphid); assay: Example B6: Myzus persicae (green peach aphid), feeding/contact activity; settings: 144 h, application rate 200 ppm, 6 days after infestation
Experimental: Example B6: Myzus persicae (Green Peach Aphid):Feeding/Contact Activity
(§1) Sunflower leaf discs were placed onto agar in a 24-well microtiter plate and sprayed with aqueous test solutions prepared from 10,000 ppm DMSO stock solutions. After drying, the leaf discs were infested with an aphid population of mixed ages. The samples were assessed for mortality 6 days after infestation.

[3] = system: Plutella xylostella (Diamondback Moth); assay: Example B14: activity against Plutella xylostella (diamondback moth), 96-well artificial diet; settings: 216 h, application rate 500 ppm, 9 days after infestation
In short: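 Diet in 96-well plates was treated with aqueous dilutions of 10,000 ppm DMSO stocks, dried, and infested with 30 eggs per well via a netted lid; hatching L1 larvae fed on the diet. Mortality scored 9 days after infestation.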

[4] = system: Tetranychus urticae (Two-Spotted Spider Mite); assay: Example B11: Tetranychus urticae (two-spotted spider mite), feeding/contact activity; settings: 192 h, application rate 200 ppm, mixed population (mobile stages), 8 days after infestation
Experimental: Example B11: Tetranychus urticae (Two-Spotted Spider Mite):Feeding/Contact Activity
Bean leaf discs on agar in 24-well microtiter plates were sprayed with aqueous test solutions prepared from 10,000 ppm DMSO stock solutions. After drying the leaf discs were infested with a mite population of mixed ages. The samples were assessed for mortality on mixed population (mobile stages) 8 days after infestation.

[5] = system: Euschistus heros (Neotropical Brown Stink Bug); assay: Example B2: Euschistus heros (neotropical brown stink bug), soybean leaves sprayed, N2 nymphs; settings: 120 h, application rate 200 ppm, 5 days after infestation, read-out: effect in at least one of the two categories (mortality or growth inhibition)
In short: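 Soybean leaves on agar sprayed with aqueous test solutions made from 10,000 ppm DMSO stocks, dried, then infested with N2 nymphs. Mortality and growth inhibition scored versus untreated samples 5 days after infestation; activity threshold at 200 ppm.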

[6] = system: Myzus persicae (Green Peach Aphid); assay: Example B8: Myzus persicae (green peach aphid), intrinsic activity; settings: 120 h, test rate 12 ppm, sucrose solution, 24-well, 5 days after infestation
In short: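 Compounds diluted from 10,000 ppm DMSO stock were mixed with sucrose solution under stretched Parafilm in a sachet feeding setup, with aphid-infested pea seedlings placed on the membrane. Mortality was scored 5 days after infestation.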

[7] = system: Diabrotica Balteata (Corn Root Worm); assay: Example B1: Diabrotica balteata (corn root worm), maize sprouts sprayed, L2 larvae; settings: 96 h, application rate 200 ppm, 4 days after infestation, read-out: effect in at least one of the two categories (mortality or growth inhibition)
In short: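 Maize sprouts on agar sprayed with aqueous dilutions of 10,000 ppm DMSO stocks, dried, then infested with 6–10 L2 larvae per well. Mortality and growth inhibition scored against untreated samples 4 days after infestation; rates of 200 ppm.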

[8] = system: Thrips tabaci (Onion Thrips); assay: Example B12: Thrips tabaci (onion thrips), feeding/contact activity; settings: 144 h, application rate 200 ppm, mixed ages, 6 days after infestation
Experimental: Example B12: Thrips tabaci (Onion Thrips) Feeding/Contact Activity
as §1, with “on” for “onto”, “in” for “in a”, “plates” for “plate”, “drying” for “drying,”, “a thrips” for “an aphid”

[9] = system: Myzus persicae (Green Peach Aphid); assay: Example B13: activity against Myzus persicae (green peach aphid), 96-well sucrose solution; settings: 120 h, application rate 50 ppm, 5 days after infestation
In short: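 Compounds, from 10,000 ppm DMSO stocks, mixed into sucrose solution in wells under stretched Parafilm, with aphids placed on the membrane in an inverted feeding setup. Mortality scored 5 days after infestation.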

[10] = system: Myzus persicae (Green Peach Aphid); assay: Example B7: Myzus persicae (green peach aphid), systemic activity; settings: 144 h, test rate 24 ppm, pea seedling roots in test solution, 6 days
Experimental: Example B7: Myzus persicae (Green Peach Aphid), Systemic Activity
Roots of pea seedlings infested with an aphid population of mixed ages were placed directly into aqueous test solutions prepared from 10,000 DMSO stock solutions. The samples were assessed for mortality 6 days after placing seedlings into test solutions.

[11] = system: Frankliniella occidentalis (Western Flower Thrips); assay: Example B3: Frankliniella occidentalis (western flower thrips), feeding/contact activity; settings: 168 h, application rate 200 ppm, mixed ages, 7 days after infestation
Experimental: Example B3: Frankliniella occidentalis (Western Flower Thrips):Feeding/Contact Activity
Sunflower leaf discs were placed on agar in 24-well microtiter plates and sprayed with aqueous test solutions prepared from 10,000 DMSO stock solutions. After drying the leaf discs were infested with a Frankliniella population of mixed ages. The samples were assessed for mortality 7 days after infestation.

[12] = system: Spodoptera littoralis (Egyptian Cotton Leaf Worm); assay: Example B9: Spodoptera littoralis (Egyptian cotton leaf worm), cotton leaf discs sprayed, L1 larvae; settings: foliar, 72 h, application rate 200 ppm, 3 days after infestation
In short: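 Leaf discs on agar sprayed with aqueous dilutions from 10,000 ppm DMSO stock, dried, then infested with five L1 larvae. Mortality, anti-feeding and growth inhibition scored against untreated samples 3 days after infestation; control counted when any category exceeds untreated.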

[13] = system: Chilo suppressalis (Striped Rice Stemborer); assay: Example B4: Chilo suppressalis (striped rice stemborer), artificial diet, L2 larvae; settings: 144 h, application rate 200 ppm, 6 days after infestation
In short: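 L2 larvae (6-8 per well) placed on artificial diet treated with aqueous test solutions prepared from 10,000 ppm DMSO stocks, after drying. Mortality, anti-feeding and growth inhibition scored against untreated samples 6 days after infestation; control means at least one category exceeds untreated.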

CC(c1ncnn1-c1ncccn1)N(CC1CC1)C(=O)c1cc(C(F)(F)F)cc(S(C)(=O)=O)c1 (stereo not drawn) [P34, N-(cyclopropylmethyl)-3-methylsulfonyl-N-[1-(2-pyrimidin-2-yl-1,2,4-triazol-3-yl)ethyl]-5-(trifluoromethyl)benzamide]
≥ 80%: percent effect (mortality or growth inhibition) at 200 ppm [1] | mortality at 200 ppm [2] | mortality at 500 ppm [3] | mortality at 200 ppm [4] | percent effect (mortality or growth inhibition) at 200 ppm [5] | mortality at 12 ppm [6] | percent effect (mortality or growth inhibition) at 200 ppm [7] | mortality at 200 ppm [8] | mortality at 50 ppm [9] | mortality at 24 ppm [10]

Cc1nc(C(C)NC(=O)c2cc(C(F)(F)F)cc(C3(C#N)CC3)c2)n(-c2ncccn2)n1 (stereo not drawn) [P83, 3-(1-cyanocyclopropyl)-N-[1-(5-methyl-2-pyrimidin-2-yl-1,2,4-triazol-3-yl)ethyl]-5-(trifluoromethyl)benzamide]
≥ 80%: percent effect (mortality or growth inhibition) at 200 ppm [1] | mortality at 200 ppm [2] | mortality at 200 ppm [11] | mortality at 200 ppm [4] | percent control (mortality, anti-feedant effect or growth inhibition) at 200 ppm [12] | percent effect (mortality or growth inhibition) at 200 ppm [5] | mortality at 12 ppm [6] | percent effect (mortality or growth inhibition) at 200 ppm [7] | percent control (mortality, anti-feedant effect or growth inhibition) at 200 ppm [13] | mortality at 50 ppm [9] | mortality at 24 ppm [10]
